Measurements as given in patent US10022341B2, “Methods of preventing neurodegeneration of association cortex in a mammal” (YALE UNIVERSITY, priority 2014, dated 2018).
“Also recorded” adds a separate entry of the source.

Legend:
[1] = system: p-S214 tau in aged monkey dlPFC; assay: Immunoblot of p-S214 tau in dlPFC after chronic daily treatment; type: in vivo; conditions: 0.001-0.1 mg/kg daily for 6 mos, n=1, pilot study
Method: FIG. 18 is a set of immunoblots and a graph illustrating the finding that chronic daily treatment with the α2A-AR agonist, guanfacine, reduces abnormal phosphorylation of tau in the aged monkey dlPFC.
Heat-stable tau was prepared as detailed in Bussière et al., 2003, J Comp Neurol. 463:281. Small blocks of dlPFC were surgically removed and flash-frozen before perfusion of subjects. A piece was placed into ice-cold homogenization buffer (10 mM Tris pH 7.4, 140 mM NaCl, 2 mM EGTA, plus protease and phosphatase inhibitors; 400 μL per 100 mg tissue) and homogenized by sonication. A small fraction was reserved for protein quantification for gel loading. NaCl was added to 250 mM, followed by addition of β-mercaptoethanol (14.3 M, Sigma) to 5% total volume. Samples were vortexed and heated to 100° C. for 15 min, vortexed, then cooled on ice for 30 min. Lysates were cleared by centrifugation at 16,100×g for 10 min at 4° C., and the supernatant used for immunoblotting. Band intensities were normalized by total heat-stable protein, quantified by measurement of major band intensities on a Coomassie stained gel (FIG. 5C).
All samples were run on Invitrogen Novex 4-12% Tris-glycine gels using the Biorad Western blotting system. […] Bands were quantified using Odyssey Software, and statistics performed by Student's T-test, unless stated otherwise.

[2] = system: phospho-COXIV-1 (p-S58) in aged monkey dlPFC; assay: Immunoblot of phospho-COXIV-1 (p-S58) in dlPFC after chronic daily treatment; type: in vivo; conditions: 0.001-0.1 mg/kg daily for 6 mos, n=1, pilot study
Method: FIG. 19 is a set of immunoblots and a bar graph illustrating that chronic daily treatment with the α2A-AR agonist, guanfacine, reduces abnormal phosphorylation of COXIV in the aged monkey dlPFC.
All samples were run on Invitrogen Novex 4-12% Tris-glycine gels using the Biorad Western blotting system. Lanes were transferred onto […] Nitrocellulose (Biorad) and incubated overnight in primary antibodies: anti PDE4A (Abcam, ab14607; 1:1000), anti-GAPDH (Advanced Immunochemical, mAb 6C5; 1:5000), anti-PDE4B (Pearson et al., 1985, Proc. Natl. Acad. Sci. USA 82:4531), anti-β-tubulin (T2200, Sigma; 1:5000), anti-PSD95 (EMD Millipore, mAb N68; 1:5000), anti-pSer214 (EMD Millipore, AB6972; 1:1000) for all experiments, except the primary culture experiment, where Abcam 4846 was used due to discontinuation of the previous antibody, anti-pThr231 (Pierce, OPA1-031556; 1:1000), anti-tau (clone 5E2, EMD Millipore, 05-348; 1:500-1:1000). Primary antibodies were labeled using the appropriate Licor IRDye 680 or 800 secondary antibody, and visualized using a Licor Odyssey Infra Red Scanner. Bands were quantified using Odyssey Software, and statistics performed by Student's T-test, unless stated otherwise.

[3] = humans; cited from earlier work
aged monkeys (18-28 yrs) = assay: Working memory performance after chronic daily treatment; type: in vivo, monkey
[4] = system: pS214-tau in mouse primary cortical neurons; assay: pSer214 phosphorylation assay in cultured neurons (immunoblot); type: cell-based
Method: FIG. 15 is a series of immunoblots illustrating the effect of PDE4 inhibition on phosphorylation of tau at Serine 214. Mouse primary cortical neurons between 7-11 days in vitro were preincubated with 10 μM rolipram or vehicle for 10 min, before being subjected to treatment with varying nM concentrations of forskolin (as indicated). Following this treatment, cells were lysed in 1% SDS with protease and phosphatase inhibitors (Complete Mini, Roche and PhosStop, Roche), and heated to 70° C. to prevent further phosphatase activity. Samples were quantified by BCA assay, and analyzed by imunoblotting. Blots were labeled for pSer214-tau (Abcam, 4846), total tau (EMD Millipore, clone 5E2) and GAPDH (Advanced Immunochemical, mAb 6C5). Bands were quantified using Image J, and total tau signals were normalized by GAPDH. p-Tau signals were then normalized to total tau signals.
Primary cortical neurons were prepared from P1 C57Bl/6 mice. One day prior to neuron production, plates were coated overnight with Poly-D-Lysine solution (Sigma). […]
Assays were performed on primary cortical neurons between 7-11 days in vitro. […] Samples were quantified by BCA assay, and analyzed by immunoblotting. In this instance, band intensity was quantified using ImageJ, and significance assessed by 2 way ANOVA using Graph Pad Prism software.

| SMILES | p-S214 tau expression in dlPFC compared to chronic vehicle [1] | phospho-COXIV-1 (p-S58) expression in dlPFC compared to chronic vehicle [2] | safety of long-term treatment [3] | working memory / cognitive performance compared to baseline (aged monkeys (18-28 yrs); 0.001 or 0.01 mg/kg daily for 6 months, n=4 or 5) | working memory / cognitive performance compared to baseline (aged monkeys (18-28 yrs); highest dose 0.1 mg/kg daily for 6 months, 0.1 mg/kg) | forskolin-induced increase in pS214-tau ([4]; 10 μM with forskolin, F(1,60)=8.882, p=0.0042) | pS214-tau level ([4]; PDE4 inhibition, FIG. 3G) |
| --- | --- | --- | --- | --- | --- | --- | --- |
| NC(N)=NC(=O)Cc1c(Cl)cccc1Cl [guanfacine, N-(diaminomethylidene)-2-(2,6-dichlorophenyl)acetamide] | reduces the expression of p-tau; also recorded: dose-related reduction in phosphorylated tau at the pS214 site; also recorded: dose-related reduction in p-S214 expression | reduces the expression of p-tau and phospho-COXIV-1; also recorded: decreasing phospho-COXIV-1; also recorded: decreased phospho-COXIV-1 expression | proven safe for long-term treatment | enhances cognitive performance; also recorded: significantly improved working memory performance | produced improvement in some monkeys but not in others; also recorded: highly variable and thus not significant |  |  |
| COc1ccc(C2CNC(=O)C2)cc1OC1CCCC1 (stereo not shown) [rolipram] |  |  |  |  |  | significantly increased | increased pS214-tau |
